Here are results for five substances from patent US20030203372A1, “Analysis method” (priority 2000, published 2003).

Data set [1] in a line: Hypoxia response of the referenced genes/sequences, summary in cross-reference Table 26. It is filed as cell-based, human. The conditions noted are these: direction of expression change of the gene/sequence in response to hypoxia.
Data set [2] concerns primary human cell cultures (11 cell types). Put plainly: Custom gene array, 11 human cell types in normoxia or hypoxia for 6 hr and 18 hr. It is filed as cell-based. On the procedure: Equivalent cultures of non-immortalized, non-transformed primary human cells of 10 distinct types, were cultured in either normoxia or were exposed to hypoxia for 6 hr and 18 hr, and gene expression changes were determined. […] Moreover, unlike the vast majority of information in the public domain relating to genes responsive to hypoxia, all of these cells were human and were cultured without any modifications following isolation from the human donors.
A non-primary cell type (#9) was used to represent neurons, since primary human neurons are difficult to source. Therefore a total of 11 cell types are compared. It should be noted that RNA from hepatocytes at the […] timepoint of hypoxia was not available for this work.
Each RNA sample was hybridised to duplicate or triplicate arrays, to ensure reproducible data, and was analysed using GeneSpring software. Data from replicate arrays were merged during analysis to generate mean values. Data normalisation was achieved per-array using the aforementioned list of control genes, such that differences in RNA labelling or hybridization due to experimental variation were corrected by referencing each gene to the mean value of the reference genes on the same array. Also, for each gene, expression values were obtained which represent the value in each experimental condition (e.g. macrophages 6 hr hypoxia) as compared to the median of value of that gene throughout the full range of experimental conditions (i.e. from all cell types). […] This is common in microarray data analysis.

Data set [3] deals with primary human macrophages. Put plainly: Custom gene array, macrophages exposed to hypoxia and/or IL-15. It is filed as cell-based. The conditions noted are these: relative to no cytokine, 20% oxygen = 1. As to the method: Gene expression levels were measured and compared using the custom gene array. In data analysis per-gene normalisation was set up such that expression values represent the fold-change compared with the expression in untreated normoxic cells. Genes which are increased in expression in response to TNFα by at least 2-fold, in either normoxic or hypoxic cells, are shown in Table 20. Genes which are decreased in expression in response to TNFα by at least 2-fold, in either normoxic or hypoxic cells, are shown in Table 21.
The cytokine IL-15 is implicated in several disease in which macrophages and hypoxia both feature as elements of the inflammatory state, such as in atherosclerosis (Wuttge D M et al Am J Pathol. 2001 159:417-23) and rheumatoid arthritis (McInnes I B et al Immunol Today. 1998 19:75-9). Although the main target of IL-15 is T-cells effects have also been shown on monocytes (Badolato R et al Blood. 1997 90:2804-9). Therefore genes which respond to both hypoxia and IL-15 are especially likely to be relevant to disease processes and have utility in the design of therapeutic products. Genes which are increased in expression in response to IL-15 by at least 2-fold, in either normoxic or hypoxic cells, are shown in Table 24. Genes which are decreased in expression in response to IL-15 by at least 2-fold, in either normoxic or hypoxic cells, are shown in Table 25.

For Endothelin 1, in data set [1], the Hypoxia response result is “Repression”.

Consider p1G10, for which the mRNA expression level in data set [2] (cell type #1, HY (hypoxia) 6 hr) was found to be 0.61; in data set [2] (cell type #1, HY (hypoxia) 18 hr), 1.52; in data set [2] (cell type #1, NO (normoxia)), 1.01; in data set [2] (cell type #2, HY (hypoxia) 6 hr) it was 1.76; in data set [2] (cell type #2, HY (hypoxia) 18 hr), 1.65; in data set [2] (cell type #2, NO (normoxia)), 1.69. Also, the mRNA expression level in data set [2] (cell type #3, HY (hypoxia) 6 hr) was 3.58; in data set [2] (cell type #3, HY (hypoxia) 18 hr) it was 2.49; in data set [2] (cell type #3, NO (normoxia)), 2.01; in data set [2] (cell type #4, HY (hypoxia) 6 hr), 1.13; in data set [2] (cell type #4, HY (hypoxia) 18 hr), 0.99; in data set [2] (cell type #4, NO (normoxia)), 1.32. For the same substance, the mRNA expression level worked out at 0.65 in data set [2] (cell type #5, HY (hypoxia) 6 hr); 0.44 in data set [2] (cell type #5, NO (normoxia)); 0.62 in data set [2] (cell type #6, HY (hypoxia) 6 hr); 0.44 in data set [2] (cell type #6, NO (normoxia)).

Alpha-2-macroglobulin: the Hypoxia response entry in data set [1] was “Repression”.

In the case of IL-15, in data set [3] (0.1% oxygen), the “ABL expression (clone p1H8, Seq ID 182)” value is 0.09; the “Abstrakt expression (clone p1C14, Seq ID 384)” value is 1.24; the “Adipophilin expression (clone p1B6, Seq ID 314)” value came to 2.39; the “Adipophilin expression (clone p1B7, Seq ID 314)” value came to 2.02. Moreover, in data set [3] (0.1% oxygen), the “Adipophilin expression (clone p1B8, Seq ID 314)” value is 1.42; the “Adipophilin expression (clone p1B9, Seq ID 314)” value was determined as 1.66; the “Aldolase C expression (clone p1A19, Seq ID 260)” value amounted to 1.30; the “D123 expression (clone p1C7, Seq ID 370)” value was 0.90. In data set [3] (0.1% oxygen), the “EST expression (clone p1D19, Seq ID 144)” value was 1.39; the “EST expression (clone p1H6, Seq ID 192)” value was found to be 0.67; the “EST expression (clone p2A14, Seq ID 446)” value amounted to 0.51; the “Fatty-acid-Coenzyme A ligase, long-chain 2 expression (clone p1J11, Seq ID 466)” value is 1.29. For the same substance, in data set [3] (0.1% oxygen), the “GAPDH expression (clone p1A11, Seq ID 254)” value came out at 4.32; the “Glucose phosphate isomerase expression (clone p1C6, Seq ID 368)” value was determined as 3.13; the “Glycogen synthase 1 expression (clone p1G24, Seq ID 276)” value amounted to 0.55; the “Hypoxia-inducible protein 2 expression (clone p1D8, Seq ID 272)” value stood at 0.62. In data set [3] (0.1% oxygen), the “Keratin 6B expression (clone p1K14, Seq ID 422)” value was 0.11; the “Lactate dehydrogenase A expression (clone p1A8, Seq ID 224)” value was found to be 2.29; the “Lactate dehydrogenase A expression (clone p1A9, Seq ID 224)” value is reported as 1.83; the “Metallothionein 2A expression (clone p1A23, Seq ID 266)” value was 3.08. Also, in data set [3] (0.1% oxygen), the “Neutral sphingomyelinase (N-SMase) activation associated factor expression (clone p1J22, Seq ID 428)” value is on record as 0.11; the “Proline 4-hydroxylase, alpha polypeptide II expression (clone p1B4, Seq ID 350)” value came out at 1.34; the “SCYA2 expression (clone p1P5, Seq ID 396)” value came out at 1.37; the “SCYA7 expression (clone p1J5, Seq ID 464)” value was 1.61. Also, in data set [3] (0.1% oxygen), the “SCYA8 expression (clone p1I21, Seq ID 480)” value amounted to 1.55; the “Triosephosphate isomerase 1 expression (clone p1A20, Seq ID 262)” value is on record as 1.22; the “Uridine 5′ monophosphate hydrolase 1 expression (clone p1I7, Seq ID 50)” value amounted to 3.61; the “cDNA: FLJ23019 fis, clone LNG00916 expression (clone p1J16, Seq ID 454)” value worked out at 7.27. In addition, in data set [3] (0.1% oxygen), the “hypothetical protein FLJ10206 expression (clone p1J6, Seq ID 40)” value is 0.18; the “hypothetical protein FLJ22690 expression (clone p1H5, Seq ID 206)” value was determined as 1.59; the “hypothetical protein MGC4549 expression (clone p1I12, Seq ID 152)” value came to 0.28. Moreover, in data set [3] (20% oxygen), the “ABL expression (clone p1H8, Seq ID 182)” value stood at 1.22; the “Abstrakt expression (clone p1C14, Seq ID 384)” value came to 0.40; the “Adipophilin expression (clone p1B6, Seq ID 314)” value was 0.37; the “Adipophilin expression (clone p1B7, Seq ID 314)” value was 0.30. Also, in data set [3] (20% oxygen), the “Adipophilin expression (clone p1B8, Seq ID 314)” value turned out to be 0.23; the “Adipophilin expression (clone p1B9, Seq ID 314)” value came to 0.41; the “Aldolase C expression (clone p1A19, Seq ID 260)” value stood at 0.35; the “D123 expression (clone p1C7, Seq ID 370)” value is 0.47. In data set [3] (20% oxygen), the “EST expression (clone p1D19, Seq ID 144)” value worked out at 2.27; the “EST expression (clone p1H6, Seq ID 192)” value was determined as 1.95; the “EST expression (clone p2A14, Seq ID 446)” value is recorded as 1.08; the “Fatty-acid-Coenzyme A ligase, long-chain 2 expression (clone p1J11, Seq ID 466)” value turned out to be 1.64. Moreover, in data set [3] (20% oxygen), the “GAPDH expression (clone p1A11, Seq ID 254)” value is listed as 0.52; the “Glucose phosphate isomerase expression (clone p1C6, Seq ID 368)” value turned out to be 0.57; the “Glycogen synthase 1 expression (clone p1G24, Seq ID 276)” value was 0.88; the “Hypoxia-inducible protein 2 expression (clone p1D8, Seq ID 272)” value came out at 1.25. For the same substance, in data set [3] (20% oxygen), the “Keratin 6B expression (clone p1K14, Seq ID 422)” value was 1.48; the “Lactate dehydrogenase A expression (clone p1A8, Seq ID 224)” value amounted to 0.48; the “Lactate dehydrogenase A expression (clone p1A9, Seq ID 224)” value was determined as 0.49; the “Metallothionein 2A expression (clone p1A23, Seq ID 266)” value worked out at 1.26. Further, in data set [3] (20% oxygen), the “Neutral sphingomyelinase (N-SMase) activation associated factor expression (clone p1J22, Seq ID 428)” value is listed as 1.51; the “Proline 4-hydroxylase, alpha polypeptide II expression (clone p1B4, Seq ID 350)” value is 0.50; the “SCYA2 expression (clone p1P5, Seq ID 396)” value was determined as 4.51; the “SCYA7 expression (clone p1J5, Seq ID 464)” value amounted to 3.27. Also, in data set [3] (20% oxygen), the “SCYA8 expression (clone p1I21, Seq ID 480)” value is given as 3.77; the “Triosephosphate isomerase 1 expression (clone p1A20, Seq ID 262)” value is 0.36; the “Uridine 5′ monophosphate hydrolase 1 expression (clone p1I7, Seq ID 50)” value came to 4.98; the “cDNA: FLJ23019 fis, clone LNG00916 expression (clone p1J16, Seq ID 454)” value is on record as 5.76. For the same substance, in data set [3] (20% oxygen), the “hypothetical protein FLJ10206 expression (clone p1J6, Seq ID 40)” value is on record as 1.28; the “hypothetical protein FLJ22690 expression (clone p1H5, Seq ID 206)” value was 2.37; the “hypothetical protein MGC4549 expression (clone p1I12, Seq ID 152)” value was determined as 1.64.

Consider Monocyte chemotactic protein 1, for which, in data set [1], the Hypoxia response entry is recorded as “Repression”.
